From US11110303B2, “Hapten-enhanced chemoimmunotherapy by ultra-minimum incision personalized intratumoral chemoimmunotherapy” (priority 2014, dated 2021)
Read-outs that look alike come from different tables or passages of the source.

- drug retention in tumor (12 hours after intratumoral injection): 16%
- retention rate of Ara-C in tumor (24 hours after intratumoral injection): 0%
- retention rate of Ara-C in tumor (fifteen minutes after intratumoral injection): 100%
- retention rate of Ara-C in tumor (four hours after intratumoral injection): 16%
SMILES: Nc1ccn([C@@H]2O[C@H](CO)[C@@H](O)[C@@H]2O)c(=O)n1 [Ara-C alone, Cytosine Arabinoside]
